The procedure of data set [1]:
Cohort 1 received 50 mg of each dipeptide in 300 mL water. Cohort 2 received 100 mL Peptamen first, then 50 mg of each dipeptide in 150 mL water, followed by another 50 mL water. All drinks were taken within a minute. Cohort 3 received 100 mL Peptamen first, then a reduced dose of 5 mg of each dipeptide in 150 mL water, followed by another 50 mL water. All drinks were taken within a minute. Blood samples were collected after 15 min, 30 min, 45 min, 1 h, 2 h, 3 h, 4 h, 6 h, 8 h, 10 h, 14 h, 48 h and 72 h after dosing. Urine was collected and pooled at 0-4 h, 4-6 h, and 6-10 h, and was collected as spot urine at 48 h and 72 h after dosing.
Plasma samples were thawed on ice, mixed, and 100 µL of each sample was transferred to a 1.5 mL LoBind reaction tube. Plasma samples were precipitated after adding 200 µL of acetonitrile/methanol (10:1), and incubated on ice for 15 min. Samples were centrifuged at 16,000 g for 15 min at 4 °C. 100 µL supernatant was dried under nitrogen at 40 °C. Samples were reconstituted in 100 µL 0.1% formic acid and 5 µL was applied to the LC-MS/MS instrument.
Labelled XP dipeptides and single amino acids (P*, L*, F*) in plasma samples were quantified by LC-MS/MS using Nexera LC40 HPLC system (Shimadzu, Duisburg, Germany) coupled to an API 6500+ ™ tandem mass spectrometer (AB Sciex, Darmstadt, Germany). For chromatographic separation an ACQUITY UPLC HSS PFP Column (100 Å, 1.8 µm, 2.1 mm X 150 mm; Waters, Eschborn, Germany) protected by a SecurityGuard C18 column (4x2 mm; Phenomenex, Aschaffenburg, Germany) was used. Chromatographic separation was performed at an oven temperature of 40°C and the solvent flow rate was set to 400 µL/min. Elution was achieved by varying composition of solvent A (90% acetonitrile + methanol (6 + 1), 0.1% formic acid in H2O) and solvent B (0.1% formic acid in H2O) using following LC conditions: 0-1.4 min 0% solvent A; 1.4-10.4 min 0-50% solvent A; 10.5-12.9 min 80% solvent A; 13-15 min 0% solvent A. To decrease the introduction of debris into the MS, a valve was directed to waste at 0.1-1 min and 9.5-14.9 min.
MS detection of labelled amino acids and XP dipeptides was performed in positive mode with curtain gas set to 40, gas 1 of 50, gas 2 of 70, temperature of 500°C and an IS of 3500. Detection was achieved using MS parameters and mass transitions listed in Supplementary Table 3 .
LC-MS/MS-generated chromatograms were analyzed using Analyst 1.7.2 (Sciex, Darmstadt, Germany). The pharmacokinetics parameter AUC was calculated using GraphPad Prism version 8.0 (GraphPad Prism Software Inc., La Jolla, CA, USA). Partial AUCs were calculated manually using the trapezoidal rule.
Statistical analyses were performed using SPSS Statistics Version 28 (SPSS Inc., IBM, Chicago, IL, USA). To compare the effects between cohorts in the dipeptide resorption study the one-tailed Mann-Whitney-Test was applied. To compare the effects between enzyme supplementation and controls during the proof-of-concept study the one tailed Wilcoxon matched-pairs signed rank test was applied.

The nature of data set [2]: plasma of healthy volunteers after oral administration of SI-labelled XP dipeptides (with water or Peptamen). Conditions: human (healthy volunteers), up to 72 h.
The test system of data set [3] is AMYNOPEP (dipeptidyl peptidase : aminopeptidase, 1:1 ratio). The experiment in a line: in vitro with AMYNOPEP at an enzyme ratio of 1:1.
The subject of data set [4] is AMYNOPEP (dipeptidyl peptidase and aminopeptidase, 1:10 enzyme ratio). In words: Tris buffer at pH 7.0 using an enzyme mixture consisting of 0.86 mg/L dipeptidyl peptidase and 8.6 mg/L aminopeptidase. As to conditions: 37°C, up to 60 minutes.
The subject of data set [5] is gastric, pancreatic, and intestinal peptidases. The experiment in a line: human gastric, pancreatic, and intestinal peptidases. Conditions: cited from earlier work.

Like-named read-outs stand apart in the source and are kept apart here.

Regarding `N[C@@H](Cc1ccccc1)C(=O)O` [F*, phenylalanine], the “reduction in plasma AUC of labelled amino acid on dose reduction from 50 mg to 5 mg of each XP” value (shortened to “reduction in plasma AUC”) in data set [1] (oral XP dipeptides taken with 100 mL Peptamen, n=3 healthy volunteers per cohort, LC-MS/MS) amounted to 9.5 fold. Further, the “SI-labelled amino acid detection in plasma after oral XP dipeptides” value in data set [1] (oral, 50 mg each of F*P*, LP*, L*P* in water, n=3 healthy volunteers, HPLC-MS/MS) was “detectable”. For the same compound, the “decrease in plasma AUC of labelled amino acid with Peptamen relative to water” value in data set [1] (oral, 50 mg of each XP dipeptide with 100 mL Peptamen vs water, n=3 healthy volunteers per cohort, LC-MS/MS) came out at 2.1 fold.

For the compound `CC(C)C[C@H](N)C(=O)O` [L*, leucine], the “reduction in plasma AUC” value in data set [1] (human, in vivo, po) came out at 13.2 fold.

For the compound `O=C(O)[C@@H]1CCCN1` [P*, proline], the “reduction in plasma AUC” value in data set [1] (human, in vivo, po) was 11.5 fold.

Take F*P*: in data set [2], the cleaved bond entry was “F*-P*”.

Regarding L*P*, in data set [2], the cleaved bond result is recorded as “L*-P*”.

On to LQLQPFPQPQLPYPQPQLPYPQPQLPYPQPQPF, for which the cleaved bond result in data set [3] was “P-F”; in data set [4], “L-Q, 5 min and P-Q and Q-L and P-Y and P-F, within 30 minutes and Q-L, 5 min and P-F, 5 min and P-Q, 5 min”. Besides, the not cleaved entry in data set [5] is reported as “thought to be stable to proteolytic digestion”.

Values taken from paper PMC11522800 (Frontiers in Immunology, 2024).
